Patent US20110301236A1, “HeLa-C3 Apoptosis Inducer from Garcinia paucinervis” (priority 2010, published 2011)

Key:
Type in all cases: cell-based
HeLa cells = assay: MTT assay, cell growth inhibition on HeLa cells; conditions: 72 h
Protocol: The measurement of the IC50 was conducted on the isolated compounds using MTT assay. MIT powder was dissolved in PBS at a concentration of 5 mg/mL. For MTT assay, 10 μL of MTT solution was added into each well of a 96-well plate. After 2 h incubation at 37° C., 100 μL 10% SDS solution with 0.01 M HCl was added to dissolve the purple crystals. After 24 h incubation, the optical density (OD) readings at 595 nm were measured using a plate reader. Firstly, 2,500 HeLa cells suspended in 100 μL MEM medium were seeded respectively in a 96-well plate. After 24 h incubation, fresh medium contains various concentrations of each compound were added into the 96-well plate and changed the old medium. The concentrations applied except compound 1 which was from 200 μM to 3.125 μM were ranged from 100 μM to 1.5625 μM, which was achieved by doing two-fold dilutions for 6 times. The OD values of the control group at 0 h and 72 h together with the compound treated groups at 72 h from the MTT assay were measured using a plate reader. IC50 is the concentration of a compound inhibiting 50% of the cell growth.

HeLa-C3 cells [1] = assay: Apoptosis-inducing effect in HeLa-C3 cells (caspase-3 FRET biosensor, YFP/CFP emission ratio); conditions: for Apoptotic effect at 10 μM / Apoptotic effect at 25 μM / Apoptotic effect at 50 μM / Apoptotic effect at 100 μM: 72 h, HeLa-C3 cells, YFP/CFP emission ratio
Protocol: The bioassay method was described in our previous paper with some modifications. All the testing samples were dissolved in DMSO to make stock solutions. The concentration of each stock was at least 1000 times higher than the working concentration. HeLa-C3 cells, which allows detection of apoptotic cell death involving caspase activation, were cultured in minimum essential medium (MEM) containing 10% fetal bovine serum, 100 U/mL penicillin, […] streptomycin, in a 5% CO2 humidity incubator at 37° C. The sample well for apoptotic activity testing was prepared by seeding a well on a 96-well plate with 7500 HeLa-C3 cells suspended in 100 μL culture medium. After 12-16 h incubation, the old medium was removed and 100 μL freshly prepared culture medium containing the testing sample at a certain working concentration was added to both the sample well and the corresponding background well. Culture medium containing 0.1% DMSO was the negative control while 500 nM paclitaxel was the positive control. After that, the plate was read repeatedly by a Perkin-Elmer Victor reader with excitation wavelength at 440±10 nm and emission wavelength at 486±8 nm for CFP (cyan fluorescent protein) and 535±8 nm for YFP (yellow fluorescent protein) at indicated time points. The data acquisition duration was up to 72 h. The YFP/CFP emission ratio was then calculated. The background fluorescence was measured from the wells containing only medium. After subtracting the background fluorescence from the recorded signal, net YFP and CFP readings were obtained. In this paper, Y/C emission ratio is used to represent the effect of FRET, which is equal to the net YFP reading divided by the net CFP reading from the same well. If YFP/CFP emission ratio was reduced below 3, the testing sample was considered as a good apoptotic inducer at that concentration. All samples were tested in triplicate. The whole experiment was repeated for three times.
The biological activity of these new compounds was evaluated for apoptosis inducing effects using genetically engineered HeLa-C3 cells that can produce a fluorescent biosensor capable of detecting caspase-3 activation. These cells emit a green light under normal growth conditions and change to a blue light when caspase-3 is activated during apoptosis to cleave the sensor protein inside the cells. This color change allows one to use a fluorescent plate reader to directly detect the activation level of caspase-3 in HeLa-C3 cells during the course of the compound treatment in a noninvasive way. Based on our previous test results, the emission ratio of YFP (yellow fluorescent protein)/CFP (cyanfluorescent proteins) is usually between 6 and 8 in normal cells, and this ratio will decrease to a value below 3 if a compound can activate caspase-3 and kill cancer cells. Therefore, any compound that can reduce the YFP/CFP emission ratio to a value below 3 is considered positive in activating apoptosis.

HeLa-C3 cells [2] = assay: Cell morphology changes of HeLa-C3 cells during compound treatment (FIG. 2)
Protocol: Refereeing to FIG. 2, Cell morphology changes during the course of compound treatment. HeLa-C3 cells were treated with compounds of 2 at 25 μM, an anticancer drug, pacilitaxel at 500 nM (serving as a positive control), and a control without any drug for 24, 48, and 72 h. Various cell morphologies were recorded at the indicated time points.

Compound	IC50 (HeLa cells) [µM]	Apoptotic effect at 10 μM (HeLa-C3 cells [1])	Apoptotic effect at 25 μM (HeLa-C3 cells [1])	Apoptotic effect at 50 μM (HeLa-C3 cells [1])	Apoptotic effect at 100 μM (HeLa-C3 cells [1])	IC50 (HeLa cells; Homo sapiens, HeLa) [µM]	Cell morphology (HeLa-C3 cells [2]; 25 μM, 24, 48 and 72 h)	caspase-3 activation in HeLa-C3 cells (HeLa-C3 cells [1]; within 72 h at 25 μM)	Cell morphology (HeLa-C3 cells [2]; 500 nM (positive control), 24, 48 and 72 h)
COc1c(O)c(CC=C(C)C)cc2c1Oc1cc(O)c(CC=C(C)C)c(O)c1C(=O)O2 [Compound 1, Paucinervin A]	95.6 ± 5.5	− (“−” means the YFP/CFP emission ratio of compound treated HeLa-C3 cells was above 3 at 72 h)	− (“−” means the YFP/CFP emission ratio of compound treated HeLa-C3 cells was above 3 at 72 h)	− (“−” means the YFP/CFP emission ratio of compound treated HeLa-C3 cells was above 3 at 72 h)	+ (“+” means the YFP/CFP emission ratio of compound treated HeLa-C3 cells was below 3 at 72 h)	–	–	–	–
COC(=O)c1c(O)cc(O)cc1Oc1c(O)c(OC)cc(CC=C(C)C)c1OC [Compound 2, Paucinervin B]	9.5 ± 0.2	− (“−” means the YFP/CFP emission ratio of compound treated HeLa-C3 cells was above 3 at 72 h)	+ (“+” means the YFP/CFP emission ratio of compound treated HeLa-C3 cells was below 3 at 72 h)	+ (“+” means the YFP/CFP emission ratio of compound treated HeLa-C3 cells was below 3 at 72 h)	+ (“+” means the YFP/CFP emission ratio of compound treated HeLa-C3 cells was below 3 at 72 h)	< 10	shrinkage and detached morphology	could activate caspase-3	–
CC(=O)O[C@H]1C(=O)[C@@]2(C)[C@H]([C@H](OC(=O)c3ccccc3)[C@]3(O)C[C@H](OC(=O)[C@H](O)[C@@H](NC(=O)c4ccccc4)c4ccccc4)C(C)=C1C3(C)C)[C@]1(OC(C)=O)CO[C@@H]1C[C@@H]2O [paclitaxel, reference compound]	–	–	–	–	–	–	–	–	shrinkage and detached morphology
